ChEMBL document CHEMBL5154681, “Small Amphiphilic Peptides: Activity Against a Broad Range of Drug-Resistant Bacteria and Structural Insight into Membranolytic Properties” (J Med Chem, 2022)
In brackets after ≈: the same amount, converted by molar mass. Activity calls are given as the source filed them. No cut-off for these calls is given here. Square brackets hold non-standard residues; d marks the D form. Peptide text beside a SMILES is read from it. Dip = N[C@H](C(=O)O)C(c1ccccc1)c1ccccc1; 2Nal = N[C@@H](Cc1ccc2ccccc2c1)C(=O)O

How the values were obtained:
Streptococcus pneumoniae [1] = assay: Antibacterial activity against […] ATCC 49619 incubated for 24 hrs by microtiter plate method; format: functional
Enterococcus faecium [2] = assay: Antibacterial activity against vancomycin-resistant Enterococcus faecium ATCC 700221 incubated for 24 hrs by microtiter plate method; format: functional
Bacillus cereus = assay: Antibacterial activity against Bacillus cereus ATCC 13061 incubated for 24 hrs by microtiter plate method; format: functional
Enterococcus faecalis [3] = assay: Antibacterial activity against Enterococcus faecalis ATCC 29212 incubated for 24 hrs by microtiter plate method; format: functional
Bacillus subtilis = assay: Antibacterial activity against Bacillus subtilis ATCC 6633 incubated for 24 hrs by microtiter plate method; format: functional
Enterococcus faecium [4] = assay: Antibacterial activity against Enterococcus faecium ATCC 27270 incubated for 24 hrs by microtiter plate method; format: functional
Streptococcus pneumoniae [5] = assay: Antibacterial activity against multidrug resistant […] ATCC 700677 incubated for 24 hrs by microtiter plate method; format: functional
Enterococcus faecalis [6] = assay: Antibacterial activity against vancomycin-resistant Enterococcus faecalis ATCC 51575 incubated for 24 hrs by microtiter plate method; format: functional
[7] = Hemolytic activity in human RBC assessed as hemolysis incubated for 2 hrs by spectrophotometer analysis; format: toxicity, cell-based, Erythrocyte; details: human red blood cells (erythrocytes)
Staphylococcus aureus [8] = assay: Antibacterial activity against methicillin resistant Staphylococcus aureus ATCC BAA-1556 incubated for 24 hrs by microtiter plate method; format: functional; details: Staphylococcus aureus, ATCC BAA-1556, 24 h, read-out: MIC
Pseudomonas aeruginosa [9] = assay: Antibacterial activity against Pseudomonas aeruginosa ATCC 27883 incubated for 24 hrs by microtiter plate method; format: functional; details: Pseudomonas aeruginosa
Staphylococcus aureus [10] = assay: Antibacterial activity against Staphylococcus aureus ATCC 29213 incubated for 24 hrs by microtiter plate method; format: functional; details: Staphylococcus aureus, ATCC 29213, read-out: MIC
Escherichia coli [11] = assay: Antibacterial activity against Escherichia coli ATCC 25922 incubated for 24 hrs by microtiter plate method; format: functional; details: Escherichia coli, ATCC 25922, 24 h, read-out: MIC
Pseudomonas aeruginosa [12] = assay: Antibacterial activity against Pseudomonas aeruginosa ATCC 10145 incubated for 24 hrs by microtiter plate method; format: functional
Pseudomonas aeruginosa [13] = assay: Antibacterial activity against imipenem resistant Pseudomonas aeruginosa ATCC BAA-1744 incubated for 24 hrs by microtiter plate method; format: functional
Staphylococcus aureus [14] = assay: Bactericidal activity against methicillin resistant Staphylococcus aureus ATCC BAA-1556 assessed as reduction of bacterial growth at 4 times MIC by counting formed colonies; format: functional, organism-based; details: time <= 4.0 hrs, TDE = time-dependent effect
Klebsiella pneumoniae [15] = assay: Antibacterial activity against carbapenem-resistant Klebsiella pneumoniae ATCC BAA-2470 incubated for 24 hrs by microtiter plate method; format: functional
Staphylococcus aureus [16] = assay: Antibacterial activity against methicillin resistant Staphylococcus aureus ATCC BAA-1556 incubated for 24 hrs; format: functional
Staphylococcus aureus [17] = assay: Antibacterial activity against methicillin resistant Staphylococcus aureus ATCC BAA-1556 after 24 hrs in presence of 6 mM of NH4Cl by microtiter plate method; format: functional
Staphylococcus aureus [18] = assay: Bactericidal activity against methicillin resistant Staphylococcus aureus ATCC BAA-1556 assessed as time required for complete reduction of bacterial growth at 4 times MIC by counting formed colonies; format: functional
Staphylococcus aureus [19] = assay: Antibacterial activity against methicillin resistant Staphylococcus aureus ATCC BAA-1556 after 24 hrs in presence of 150 mM of NaCl by microtiter plate method; format: functional
Escherichia coli [20] = assay: Antibacterial activity against Escherichia coli ATCC 25922 after 24 hrs in presence of fetal bovine serum by microtiter plate method; format: functional
Escherichia coli [21] = assay: Antibacterial activity against Escherichia coli ATCC 25922 incubated for 24 hrs; format: functional
Staphylococcus aureus [22] = assay: Antibacterial activity against methicillin resistant Staphylococcus aureus ATCC BAA-1556 after 24 hrs in presence of 4.5 mM of KCl by microtiter plate method; format: functional
Staphylococcus aureus [23] = assay: Antibacterial activity against methicillin resistant Staphylococcus aureus ATCC BAA-1556 after 24 hrs in presence of 1 mM of by microtiter plate method; format: functional
Escherichia coli [24] = assay: Antibacterial activity against Escherichia coli ATCC 25922 after 24 hrs in presence of 2 mM CaCl2 at by microtiter plate method; format: functional
Escherichia coli [25] = assay: Antibacterial activity against Escherichia coli ATCC 25922 after 24 hrs in presence of 4.5 mM of KCl at by microtiter plate method; format: functional
Staphylococcus aureus [26] = assay: Antibacterial activity against methicillin resistant Staphylococcus aureus ATCC BAA-1556 after 24 hrs in presence of 2 mM of CaCl2 by microtiter plate method; format: functional
Acinetobacter baumannii = assay: Antibacterial activity against ciprofloxacin resistance Acinetobacter baumannii ATCC BAA1605 incubated for 24 hrs by microtiter plate method; format: functional
Staphylococcus aureus [27] = assay: Bactericidal activity against methicillin resistant Staphylococcus aureus ATCC BAA-1556 assessed as reduction of bacterial growth at MIC by counting formed colonies; format: functional, organism-based; details: time <= 4.0 hrs, TDE = time-dependent effect
Escherichia coli [28] = assay: Antibacterial activity against Escherichia coli ATCC 25922 after 24 hrs in presence of 150 mM NaCl by microtiter plate method; format: functional
Escherichia coli [29] = assay: Bactericidal activity against Escherichia coli ATCC BAA-2452 assessed as reduction of bacterial growth at 4 times MIC by counting formed colonies; format: functional, organism-based; details: time <= 4.0 hrs, TDE = time-dependent effect
Escherichia coli [30] = assay: Bactericidal activity against Escherichia coli ATCC BAA-2452 assessed as reduction of bacterial growth at MIC by counting formed colonies; format: functional, organism-based; details: time <= 4.0 hrs, TDE = time-dependent effect
Escherichia coli [31] = assay: Antibacterial activity against Escherichia coli ATCC 25922 assessed as reduction in microbial growth after 24 hrs in presence of 6 mM of NH4Cl at by microtiter plate method; format: functional
Staphylococcus aureus [32] = assay: Bactericidal activity against methicillin resistant Staphylococcus aureus ATCC BAA-1556 assessed as time required for complete reduction of bacterial growth at MIC by counting formed colonies; format: functional
Klebsiella pneumoniae [33] = assay: Antibacterial activity against Klebsiella pneumoniae ATCC 13883 […] incubated for 24 hrs by microtiter plate method; format: functional
Staphylococcus aureus [34] = assay: Antibacterial activity against methicillin resistant Staphylococcus aureus ATCC BAA-1556 after 24 hrs in presence of fetal bovine serum by microtiter plate method; format: functional
[35] = ATCC 27883, 24 h, read-out: MIC

CN[C@H](CC(C)C)C(=O)N[C@H]1C(=O)N[C@@H](CC(N)=O)C(=O)N[C@H]2C(=O)N[C@H]3C(=O)N[C@H](C(=O)N[C@H](C(=O)O)c4cc(O)cc(O)c4-c4cc3ccc4O)[C@H](O)c3ccc(c(Cl)c3)Oc3cc2cc(c3O[C@@H]2O[C@H](CO)[C@@H](O)[C@H](O)[C@H]2O[C@H]2C[C@](C)(N)[C@H](O)[C@H](C)O2)Oc2ccc(cc2Cl)[C@H]1O [VANCOMYCIN]
MIC (Streptococcus pneumoniae [1]): 3.1 µg/mL (≈ 2.14 µM)
MIC (Enterococcus faecium [2]): > 50 µg/mL
MIC (Bacillus cereus): 0.7 µg/mL (≈ 0.483 µM)
MIC (Enterococcus faecalis [3]): 0.7 µg/mL (≈ 0.483 µM)
MIC (Bacillus subtilis): 0.7 µg/mL (≈ 0.483 µM)
MIC (Enterococcus faecium [4]): 1.5 µg/mL (≈ 1.04 µM)
MIC (Streptococcus pneumoniae [5]): 1.5 µg/mL (≈ 1.04 µM)
MIC (Enterococcus faecalis [6]): > 50 µg/mL

N=C(N)NCCC[C@@H]1NC(=O)[C@H](CCCNC(=N)N)NC(=O)[C@H](Cc2ccc3ccccc3c2)NC(=O)[C@H](Cc2ccc3ccccc3c2)NC(=O)[C@H](Cc2ccc3ccccc3c2)NC(=O)[C@H](CCCNC(=N)N)NC1=O (cyclo([2Nal][2Nal][2Nal]RRR))
HC50 at 2 h [7]: 50 µg/mL
MIC (Staphylococcus aureus [8]): 6.2 µg/mL (≈ 5.85 µM)
MIC (Pseudomonas aeruginosa [9]; [35]): 50 µg/mL (≈ 47.2 µM)
MIC (Staphylococcus aureus [10]): 3.1 µg/mL (≈ 2.92 µM)
MIC (Escherichia coli [11]): 25 µg/mL (≈ 23.6 µM)

O=C(O)c1cn(C2CC2)c2cc(N3CCNCC3)c(F)cc2c1=O [CIPROFLOXACIN]
MIC (Pseudomonas aeruginosa [12]): 0.7 µg/mL (≈ 2.11 µM)
MIC (Pseudomonas aeruginosa [13]): 0.7 µg/mL (≈ 2.11 µM)
Activity (Staphylococcus aureus [14]): Tde
MIC (Klebsiella pneumoniae [15]): 0.7 µg/mL (≈ 2.11 µM)
MBC (Staphylococcus aureus [16]): 50 µg/mL (≈ 151 µM)
MIC (Staphylococcus aureus [17]): 0.7 µg/mL
Activity (Staphylococcus aureus [18]): Active
MIC (Staphylococcus aureus [19]): 1.5 µg/mL
MIC (Escherichia coli [20]): 0.3 µg/mL
MBC (Escherichia coli [21]): 12.5 µg/mL (≈ 37.7 µM)
MIC (Staphylococcus aureus [22]): 1.5 µg/mL
MIC (Staphylococcus aureus [23]): 1.5 µg/mL
MIC (Staphylococcus aureus [8]): 3.1 µg/mL (≈ 9.36 µM)
MIC (Escherichia coli [24]): 0.3 µg/mL
MIC (Pseudomonas aeruginosa [9]; ATCC 27883, read-out: MIC): 0.7 µg/mL (≈ 2.11 µM)
MIC (Escherichia coli [25]): 0.3 µg/mL
MIC (Staphylococcus aureus [10]): 1.5 µg/mL (≈ 4.53 µM)
MIC (Staphylococcus aureus [26]): 1.5 µg/mL
MIC (Acinetobacter baumannii): 0.7 µg/mL (≈ 2.11 µM)
Activity (Staphylococcus aureus [27]): Tde
MIC (Escherichia coli [28]): 0.3 µg/mL
Activity (Escherichia coli [29]): Tde
Activity (Escherichia coli [30]): Tde
MIC (Escherichia coli [31]): 0.3 µg/mL
Activity (Staphylococcus aureus [32]): Active
MIC (Klebsiella pneumoniae [33]): 1.5 µg/mL (≈ 4.53 µM)
MIC (Staphylococcus aureus [34]): 1.5 µg/mL

N=C(N)NCCC[C@H](NC(=O)[C@H](CCCNC(=N)N)NC(=O)[C@@H](NC(=O)[C@@H](NC(=O)[C@H](CCCNC(=N)N)NC(=O)[C@@H](N)CCCNC(=N)N)C(c1ccccc1)c1ccccc1)C(c1ccccc1)c1ccccc1)C(=O)N[C@H](C(=O)O)C(c1ccccc1)c1ccccc1 (H-RR[Dip][Dip]RR[Dip]-OH)
HC50 at 2 h [7]: 240 µg/mL
MIC (Staphylococcus aureus [8]): 12.5 µg/mL (≈ 9.52 µM)
MIC (Pseudomonas aeruginosa [9]; [35]): 25 µg/mL (≈ 19 µM)
MIC (Staphylococcus aureus [10]): 12.5 µg/mL (≈ 9.52 µM)
MIC (Escherichia coli [11]): 25 µg/mL (≈ 19 µM)

N=C(N)NCCC[C@H](NC(=O)[C@@H](NC(=O)[C@@H](NC(=O)[C@H](CCCNC(=N)N)NC(=O)[C@H](CCCNC(=N)N)NC(=O)[C@@H](NC(=O)[C@@H](N)CCCNC(=N)N)C(c1ccccc1)c1ccccc1)C(c1ccccc1)c1ccccc1)C(c1ccccc1)c1ccccc1)C(=O)O (H-R[Dip]RR[Dip][Dip]R-OH)
HC50 at 2 h [7]: 220 µg/mL
MIC (Staphylococcus aureus [8]): 25 µg/mL (≈ 19 µM)
MIC (Pseudomonas aeruginosa [9]; [35]): 100 µg/mL (≈ 76.2 µM)
MIC (Staphylococcus aureus [10]): 12.5 µg/mL (≈ 9.52 µM)
MIC (Escherichia coli [11]): 25 µg/mL (≈ 19 µM)

N=C(N)NCCC[C@@H]1NC(=O)[C@H](CCCNC(=N)N)NC(=O)[C@H](CCCNC(=N)N)NC(=O)[C@H](C(c2ccccc2)c2ccccc2)NC(=O)[C@H](C(c2ccccc2)c2ccccc2)NC(=O)[C@H](C(c2ccccc2)c2ccccc2)NC(=O)[C@H](CCCNC(=N)N)NC(=O)[C@H](CCCNC(=N)N)NC1=O (cyclo([Dip][Dip][Dip]RRRRR))
HC50 at 2 h [7]: 100 µg/mL
MIC (Staphylococcus aureus [8]): 6.2 µg/mL (≈ 4.27 µM)
MIC (Pseudomonas aeruginosa [9]; [35]): 25 µg/mL (≈ 17.2 µM)
MIC (Staphylococcus aureus [10]): 6.2 µg/mL (≈ 4.27 µM)
MIC (Escherichia coli [11]): 25 µg/mL (≈ 17.2 µM)
